Measurements: patent US6313111A, “Substituted 6H-1,3,4-thiadiazine-2-amines, the use thereof as anaesthetising, cardiovascular and hypometabolic agents, and pharmaceutical composition containing them” (priority 1998, dated 2001)
“And” between values parts separate entries of the source, which are not always exact repeats. Equal values may be shown once. Where a name gives a salt, the structure may show the parent alone.

Assay: rectal (body) temperature of mice measured with medicinal electrothermometer TREM-1
Type: in vivo, mice of the BALB line
Conditions: for body temperature: i.p.
Description: In all cases tests were carried out on mice of the BALB line of 3-4 month age. […] In the case of water-soluble compounds, aqueous solutions of the test compounds were injected intraperitoneally (i.p.), while water-insoluble compounds were introduced orally (p.o.).
Rectal temperature changes (absolute magnitues in ° C.) were measured using a medicinal electrothermometer TREM-1 (Table 1). The rate of oxygen consumption was monitored by measuring concentration of oxygen in a closed testing unit with optic-acoustic gas analyser MN 5130. The data on oxygen consumption are given in percents relative to the starting content of oxygen taken as 100%. (Table 2).
Rectal temperature of mice was followed in dynamics after 5, 15, 30, 60, 120, 180, 240, 300, and 360 minutes (Table 3). […] The same decrease in temperature at 190 mg/kg dosage was reached after 15 minutes; in 1.5 hours it reached 22-25° C. and maintained this level over the next 5 hours, that is 13-17° C. below the initial value. After one day, body temperature was restored to the value of 94-96% of initial.

c1ccc(C2=NN=C(N3CCOCC3)SC2)cc1 [Compound 1, 2-Morpholino-5-phenyl-6H-1,3,4-thiadiazine, hydrobromide]
body temperature (T) (190 mg/kg (1/2 LD16) i.p., 15 min): 30.8 ± 0.2 °C
time to reach the same decrease in temperature (7-8° C.) (190 mg/kg i.p.): 15 min
body temperature (T) (190.0 mg/kg i.p., 0 min): 39.2 ± 0.1 °C
body temperature (T) (190.0 mg/kg i.p., 10 min): 34.9 ± 0.0 °C
body temperature (T) (190.0 mg/kg i.p., 20 min): 30.8 ± 0.2 °C
body temperature (T) (190.0 mg/kg i.p., 30 min, hydrobromide): 26.9 ± 0.4 °C and 26.9 °C
body temperature (T) (190.0 mg/kg i.p., 40 min): 25.9 ± 0.3 °C
body temperature (T) (190.0 mg/kg i.p., 60 min): 23.5 ± 0.2 °C
body temperature (T) (190.0 mg/kg i.p., 90 min): 21.4 ± 0.2 °C
body temperature (T) (190.0 mg/kg i.p., 120 min): 23.0 ± 0.8 °C
body temperature (T) (190.0 mg/kg i.p., 180 min): 20.9 ± 0.1 °C
body temperature (T) (190.0 mg/kg i.p., 210 min): 21.4 °C
body temperature (T) (190.0 mg/kg i.p., 240 min): 21.1 ± 0.1 °C
body temperature (T) (190.0 mg/kg i.p., 270 min): 20.8 ± 0.3 °C
body temperature (T) (190.0 mg/kg i.p., 300 min, hydrobromide): 20.2 ± 0.0 °C and 20.2 ± 0.2 °C
body temperature (T) (190.0 mg/kg i.p., 330 min): 19.8 ± 0.2 °C
body temperature (T) (190.0 mg/kg i.p., 390 min): 19.8 ± 0.2 °C
body temperature (T) (190.0 mg/kg i.p., 1140 min): 36.9 °C
body temperature (T) (190.0 mg/kg i.p., 1620 min): 37.9 ± 0.4 °C
body temperature (T) (190.0 mg/kg i.p., 1980 min): 36.9 ± 0.3 °C
time over which the temperature level was maintained (190 mg/kg i.p., after reaching 22-25° C. in 1.5 hours): 5 h
body temperature below the initial value (190 mg/kg i.p., from 1.5 hours over the next 5 hours): 13-17 °C
body temperature level reached (190 mg/kg i.p., in 1.5 hours): 22-25 °C
body temperature (T) (279.0 mg/kg i.p., 0 min): 38.9 ± 0.6 °C
body temperature (T) (279.0 mg/kg i.p., 10 min): 35.8 ± 0.1 °C
body temperature (T) (279.0 mg/kg i.p., 20 min): 30.2 ± 0.1 °C
body temperature (T) (279.0 mg/kg i.p., 30 min): 27.1 °C
body temperature (T) (279.0 mg/kg i.p., 40 min): 24.7 ± 0.2 °C
body temperature (T) (279.0 mg/kg i.p., 60 min): 21.0 ± 0.1 °C
body temperature (T) (279.0 mg/kg i.p., 90 min): 20.0 ± 0.1 °C
body temperature (T) (279.0 mg/kg i.p., 120 min): 21.0 ± 0.3 °C
body temperature (T) (279.0 mg/kg i.p., 180 min): 21.2 ± 0.2 °C
body temperature (T) (279.0 mg/kg i.p., 210 min): 21.2 °C
body temperature (T) (279.0 mg/kg i.p., 240 min): 20.8 ± 0.1 °C
body temperature (T) (279.0 mg/kg i.p., 270 min): 21.5 ± 0.1 °C
body temperature (T) (279.0 mg/kg i.p., 300 min): 21.3 ± 0.3 °C
body temperature (T) (279.0 mg/kg i.p., 330 min): 22.5 ± 0.3 °C
body temperature (T) (279.0 mg/kg i.p., 390 min): 19.4 ± 0.3 °C
body temperature (T) (279.0 mg/kg i.p., 1140 min): 20.8 °C
body temperature (T) (279.0 mg/kg i.p., 1620 min): 22.6 ± 0.9 °C
body temperature (T) (279.0 mg/kg i.p., 1980 min): 21.2 ± 0.3 °C
body temperature (T) (365.0 mg/kg i.p., 0 min): 39.6 ± 0.1 °C
body temperature (T) (365.0 mg/kg i.p., 10 min): 35.4 ± 0.2 °C
body temperature (T) (365.0 mg/kg i.p., 20 min): 30.1 ± 0.2 °C
body temperature (T) (365.0 mg/kg i.p., 30 min): 27.2 °C
body temperature (T) (365.0 mg/kg i.p., 40 min): 25.5 ± 0.2 °C
body temperature (T) (365.0 mg/kg i.p., 60 min): 23.3 ± 0.3 °C
body temperature (T) (365.0 mg/kg i.p., 90 min): 21.5 ± 0.2 °C
body temperature (T) (365.0 mg/kg i.p., 120 min): 20.9 ± 0.2 °C
body temperature (T) (365.0 mg/kg i.p., 180 min): 21.4 ± 0.1 °C
body temperature (T) (365.0 mg/kg i.p., 210 min): 21.2 °C
body temperature (T) (365.0 mg/kg i.p., 240 min): 21.1 ± 0.0 °C
body temperature (T) (365.0 mg/kg i.p., 270 min): 21.4 ± 0.7 °C
body temperature restored, % of initial (after one day, 190 mg/kg i.p.): 94-96%
body temperature (T) (dose 36.5 mg/kg (1.06 mM/kg) i.p., 300 min): 22.1 ± 0.0 °C
body temperature (T) (dose 36.5 mg/kg (1.06 mM/kg) i.p., 330 min): 21.5 ± 0.1 °C
body temperature (T) (dose 36.5 mg/kg (1.06 mM/kg) i.p., 390 min): 20.0 ± 0.2 °C
body temperature (T) (dose 36.5 mg/kg (1.06 mM/kg) i.p., 1140 min): 20.8 °C
body temperature (T) (dose 36.5 mg/kg (1.06 mM/kg) i.p., 1620 min): 21.6 ± 0.1 °C
body temperature (T) (dose 36.5 mg/kg (1.06 mM/kg) i.p., 1980 min): 22.1 ± 0.2 °C
body temperature (0 min, mg/kg: cpd 1 190.0, cpd 2 178.0, cpd 5 190.0, cpd 6 160.0): 39.2 °C
body temperature (30 min, mg/kg: cpd 1 190.0, cpd 2 178.0, cpd 5 190.0, cpd 6 160.0): 26.9 °C
body temperature (60 min, mg/kg: cpd 1 190.0, cpd 2 178.0, cpd 5 190.0, cpd 6 160.0): 23.5 °C
body temperature (90 min, mg/kg: cpd 1 190.0, cpd 2 178.0, cpd 6 160.0): 21.4 °C
body temperature (120 min, mg/kg: cpd 1 190.0, cpd 2 178.0, cpd 5 190.0, cpd 6 160.0): 23.0 °C
body temperature (180 min, mg/kg: cpd 1 190.0, cpd 2 178.0, cpd 5 190.0, cpd 6 160.0): 20.9 °C
body temperature (240 min, mg/kg: cpd 1 190.0, cpd 2 178.0, cpd 5 190.0, cpd 6 160.0): 21.1 °C
body temperature (300 min, mg/kg: cpd 1 190.0, cpd 2 178.0, cpd 6 160.0): 20.2 °C
